Data published in patent US20060079453A1, “Hla binding peptides and their uses” (priority 2002, published 2006).
No end group written: not given here.

How the values were obtained:
Test in all cases: biochemical
Type in all cases: binding
HLA-DR DRB1*1302 (DR13) = HLA-DR DRB1*1302 (DR13) (Homo sapiens, UniProt P01903+P01911, A100E/A169T/K41T/L162R/M171V/P40S/Q125H/Q178H/Q39Y/Q99D/R42S/S66N/T262R/V115G/W38E/Y61H); details: DRBI *1302
HLA-DR DRB1*0401 (DR4) = HLA-DR DRB1*0401 (DR4) (Homo sapiens, UniProt P01903+P01911, A100K/A169T/F76Y/I96L/K127E/L162R/M171V/N62H/P40V/Q125Y/R42H/S133A/S149N/S66Y/V115G/V209L/W38E); details: DRB1 *0401
HLA-DR DRB3*0101 (DR52) = HLA-DR DRB3*0101 (DR52) (Homo sapiens, UniProt P01903+P79483)
HLA-DR DRB4*0101 (DR53) = HLA-DR DRB4*0101 (DR53) (Homo sapiens, UniProt P01903+P13762, G164S); details: DRB4 *0101
HLA-DR DRB1*0802 (DR8) = HLA-DR DRB1*0802 (DR8) (Homo sapiens, UniProt P01903+P01911, A100R/A103L/A169T/F76Y/H45Y/I96F/K41T/L162R/M171V/P40S/Q125H/Q178H/Q39Y/Q99D/R218S/R42G/S66Y/V115G/W38E)
HLA-DR DRB5*0101 (DR51) = HLA-DR DRB5*0101 (DR51) (Homo sapiens, UniProt P01903+Q30154); details: DRB5 *0101
HLA-DR DRB1*0301 (DR3) = HLA-DR DRB1*0301 (DR3) (Homo sapiens, UniProt P01903+P01911, A100K/A102G/A103R/A169T/F55Y/I96L/K41T/L162R/M171V/P40S/Q125H/Q178H/Q39Y/R42S/S66N/T106N/T262R/W38E/Y61H)
Sequence of HLA-DR DRB1*0301 (DR3) (P01903 26-254 limits assumed, other chains not shown): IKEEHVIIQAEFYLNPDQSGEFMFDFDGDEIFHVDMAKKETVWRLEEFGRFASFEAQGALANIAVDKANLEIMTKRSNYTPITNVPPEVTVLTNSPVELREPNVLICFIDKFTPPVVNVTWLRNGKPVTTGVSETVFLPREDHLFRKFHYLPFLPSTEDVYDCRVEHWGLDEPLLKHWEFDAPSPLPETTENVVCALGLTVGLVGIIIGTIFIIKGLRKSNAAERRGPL

HLA-DR DRB1*0101 (DR1) = HLA-DR DRB1*0101 (DR1) (Homo sapiens, UniProt P01903+P01911, A100R/D57E/F55L/F60I/F76Y/I96L/L162R/M171V/P40L/Q125E/R42F/V115G/Y59C); details: DRB1 *0101
HLA-DR DRB1*1501 (DR15) = HLA-DR DRB1*1501 (DR15) (Homo sapiens, UniProt P01903+P01911); details: DRBI *1501
HLA-DR DRB1*0701 (DR7) = HLA-DR DRB1*0701 (DR7) (Homo sapiens, UniProt P01903+P01911, A100R/A102G/A103Q/D57E/D86V/E43K/F76Y/K127E/L162R/M171V/P40G/Q125H/Q99D/R33Q/R42Y/R54Q/S133A/S66F/T210M/V115G/Y107V/Y59L/Y89S); details: DRB1 *0701
HLA-DR DRB1*0901 (DR9) = HLA-DR DRB1*0901 (DR9) (Homo sapiens, UniProt P01903+P01911, A100R/A103E/D57H/D86V/F55Y/F60I/F76Y/I96F/K127E/L162R/M171V/P40D/Q125H/Q99R/R33Q/R42F/S133A/S66N/T210M/V115G/W38K/Y107V/Y59G/Y89S); details: DRB1 *0901
HLA-DR DRB1*1101 (DR11) = HLA-DR DRB1*1101 (DR11) (Homo sapiens, UniProt P01903+P01911, A100R/A169T/A87E/I96F/K41T/L162R/M171V/P40S/Q125H/Q178H/Q39Y/Q99D/R42S/S66Y/T262R/V115G/W38E); details: DRB1 *1101
Sequence of HLA-DR DRB1*1101 (DR11) (P01903 26-254 limits assumed, other chains not shown): as above

Sequence of HLA-DR DRB1*1302 (DR13) (P01903 26-254 limits assumed, other chains not shown): as above

Row | Molecule | IC50 (HLA-DR DRB1*1302 (DR13)) [nM] | IC50 (HLA-DR DRB1*0401 (DR4)) [nM] | IC50 (HLA-DR DRB3*0101 (DR52)) [nM] | IC50 (HLA-DR DRB4*0101 (DR53)) [nM] | IC50 (HLA-DR DRB1*0802 (DR8)) [nM] | IC50 (HLA-DR DRB5*0101 (DR51)) [nM] | IC50 (HLA-DR DRB1*0301 (DR3)) [nM] | IC50 (HLA-DR DRB1*0101 (DR1)) [nM] | IC50 (HLA-DR DRB1*1501 (DR15)) [nM] | IC50 (HLA-DR DRB1*0701 (DR7)) [nM] | IC50 (HLA-DR DRB1*0901 (DR9)) [nM] | IC50 (HLA-DR DRB1*1101 (DR11)) [nM]
1 | CC(C)C[C@H](NC(=O)[C@H](CCC(=O)O)NC(=O)[C@H](CCCCN)NC(=O)[C@H](C)N)C(=O)N[C@@H](CCCCN)C(=O)N[C@@H](Cc1ccccc1)C(=O)N[C@H](C(=O)N[C@H](C(=O)N[C@@H](CC(C)C)C(=O)N[C@H](C(=O)N[C@@H](Cc1ccccc1)C(=O)N[C@@H](CCCNC(=N)N)C(=O)N[C@@H](Cc1c[nH]cn1)C(=O)NCC(=O)N[C@@H](CC(=O)O)C(=O)O)C(C)C)[C@@H](C)O)C(C)C | 824 | 783 | 8560 | 51 | 1950 | 24 | 30000 | – | – | – | – | –
2 | CC(C)C[C@H](NC(=O)[C@@H](NC(=O)CN)C(C)C)C(=O)N[C@H](C(=O)N[C@@H](Cc1c[nH]cn1)C(=O)N1CCC[C@H]1C(=O)N[C@@H](CCC(N)=O)C(=O)N[C@@H](Cc1c[nH]c2ccccc12)C(=O)N[C@H](C(=O)N[C@@H](CC(C)C)C(=O)N[C@H](C(=O)N[C@@H](C)C(=O)N[C@@H](C)C(=O)N[C@@H](Cc1c[nH]cn1)C(=O)N[C@@H](CS)C(=O)O)[C@@H](C)O)C(C)C)C(C)C | 2430 | 67 | > 10700 | 6.2 | 1930 | – | 21300 | 87 | 66 | – | – | –
3 | CC[C@H](C)[C@H](N)C(=O)N[C@@H](CC(C)C)C(=O)N[C@@H](CC(C)C)C(=O)N[C@@H](Cc1c[nH]c2ccccc12)C(=O)N[C@@H](CCC(N)=O)C(=O)N1CCC[C@H]1C(=O)N[C@H](C(=O)N1CCC[C@H]1C(=O)N[C@H](C(=O)N[C@@H](Cc1c[nH]cn1)C(=O)N[C@H](C(=O)N[C@H](C(=O)N1CCC[C@H]1C(=O)N[C@@H](CC(C)C)C(=O)N[C@@H](CO)C(=O)O)C(C)C)[C@@H](C)O)C(C)C)[C@@H](C)CC | 1110 | 170 | > 8830 | 712 | – | 28800 | > 81800 | 45 | 65 | 19 | 131 | 2340
4 | CC[C@H](C)[C@H](N)C(=O)N[C@@H](Cc1ccc(O)cc1)C(=O)N[C@@H](CO)C(=O)N[C@H](C(=O)N[C@@H](CO)C(=O)N[C@@H](CCSC)C(=O)N[C@@H](CCCCN)C(=O)N[C@@H](Cc1c[nH]cn1)C(=O)N1CCC[C@H]1C(=O)N[C@@H](CCC(N)=O)C(=O)N[C@@H](CCC(=O)O)C(=O)N[C@@H](CCSC)C(=O)N[C@@H](CCCCN)C(=O)N[C@H](C(=O)N[C@@H](Cc1ccc(O)cc1)C(=O)O)[C@@H](C)O)[C@@H](C)CC | > 35000 | 16000 | > 21900 | 5360 | 1360 | 2590 | – | 8450 | – | – | – | 213
5 | CC[C@H](C)[C@H](NC(=O)CNC(=O)[C@H](Cc1ccc(O)cc1)NC(=O)[C@H](CC(C)C)NC(=O)[C@H](CO)NC(=O)[C@H](CC(C)C)NC(=O)[C@H](CC(C)C)NC(=O)[C@H](CO)NC(=O)[C@H](CC(C)C)NC(=O)[C@H](CCC(=O)O)NC(=O)[C@H](CO)NC(=O)[C@H](CC(C)C)NC(=O)[C@H](CCC(=O)O)NC(=O)[C@H](CCCNC(=N)N)NC(=O)[C@@H](N)CC(C)C)C(=O)O | 3220 | 371 | > 15000 | 544 | 9370 | 5180 | – | 655 | 235 | 4010 | – | 6960
6 | CC[C@H](C)[C@H](NC(=O)CNC(=O)[C@H](Cc1ccc(O)cc1)NC(=O)[C@H](CC(C)C)NC(=O)[C@H](CO)NC(=O)[C@H](CC(C)C)NC(=O)[C@H](CC(C)C)NC(=O)[C@H](CO)NC(=O)[C@H](CC(C)C)NC(=O)[C@H](CCC(=O)O)NC(=O)[C@H](CO)NC(=O)[C@@H](N)CC(C)C)C(=O)N[C@@H](Cc1c[nH]cn1)C(=O)N[C@@H](CCCCN)C(=O)N[C@@H](CCC(N)=O)C(=O)O | – | 1550 | > 13000 | 79 | – | 7.3 | > 81800 | 482 | 45 | 20900 | 1450 | 1660
7 | CC(C)C[C@H](NC(=O)[C@@H](NC(=O)[C@H](CCC(N)=O)NC(=O)[C@H](Cc1c[nH]c2ccccc12)NC(=O)[C@@H]1CCCN1C(=O)[C@H](CCC(N)=O)NC(=O)[C@@H](N)CO)C(C)C)C(=O)N[C@H](C(=O)N[C@@H](C)C(=O)N[C@@H](CO)C(=O)N[C@@H](CCCNC(=N)N)C(=O)NCC(=O)N[C@@H](CCCNC(=N)N)C(=O)N[C@@H](C)C(=O)N[C@H](C(=O)O)C(C)C)C(C)C | 32 | 7630 | > 12100 | 7560 | 386 | 84 | > 81800 | 66 | 11300 | – | – | –
8 | CC[C@H](C)[C@H](NC(=O)[C@H](Cc1c[nH]c2ccccc12)NC(=O)[C@@H](NC(=O)[C@@H](N)C(C)C)[C@@H](C)O)C(=O)NCC(=O)N[C@@H](C)C(=O)N[C@@H](C)C(=O)N1CCC[C@H]1C(=O)N[C@@H](CC(C)C)C(=O)N[C@H](C(=O)N[C@@H](CC(C)C)C(=O)N[C@@H](CO)C(=O)N[C@@H](CCCNC(=N)N)C(=O)N[C@H](C(=O)N[C@H](C(=O)O)C(C)C)[C@@H](C)CC)[C@@H](C)CC | 2340 | 8000 | > 10700 | 88 | – | – | > 81800 | 8.1 | – | 195 | 82 | 1780
9 | ADKIYSISMKHPQEM | 4960 | 5310 | > 21900 | 3550 | 1140 | – | – | – | 8270 | 4100 | – | –
10 | AKTFLRTLVRGVPEY | 94 | 208 | 546 | 472 | 9.2 | 3480 | 54200 | 104 | 829 | 25 | – | 6.3
11 | GNEIFNTSLFEPPPP | 2800 | > 20000 | > 13200 | 835 | > 163000 | > 200000 | – | 20400 | > 91000 | > 35700 | – | > 40000
12 | LFRVYSNFLRGKLKL | 80 | 643 | 8980 | 2330 | 28 | 2.9 | 6160 | 43 | 2.8 | 5.5 | – | 173
13 | LLYTFRKDMDKVETF | > 14500 | 10600 | 941 | – | – | – | 23900 | > 18000 | 886 | 53400 | > 59500 | 7900
14 | RNFYVINRLTGYLRN | 9.4 | 219 | 689 | – | – | 5.6 | 2200 | 1.7 | 18 | 527 | 7600 | 55
15 | RPGLLGASVLGLDDI | 2060 | 6520 | 30200 | 22000 | > 61200 | > 88900 | 35800 | – | 6000 | – | – | > 93900
16 | VILLGRHSLFHPEDT | 543 | 8210 | > 12100 | 10700 | 737 | ≥ 100000 | 8740 | 273 | 426 | 30600 | – | –
